In US10679730B2, “Prognostic and predictive breast cancer signature” (The University of Chicago, priority 2013, dated 2020):

What was measured:
Format in all cases: cell-based, human
HOXA9 in 1833 cells = assay: qRT-PCR / immunoblotting for HOXA9 after demethylation treatment of 1833 cells; conditions: 1833 cells treated with demethylation reagent; qRT-PCR / immunoblotting (FIG. 20G, 27A, 27C)
Experimental: (§1) Total RNA was isolated from cells by using miRNeasy Mini Kit (Qiagen) following the manufacturer's instructions. Quantitative RT-PCR (qRT-PCR) was performed as described (4). The qPCR primers for human or murine HMGA2, TET1, HOXA genes and GAPDH were Taqman and were purchased from Applied Biosystems.
Cells were lysed in complete lysis buffer (pH 7.5) by using Nuclear Extract Kit (Active Motif) following the manufacturer's protocols. Proteins were measured, separated, and probed as described (4). Antibodies specific for each protein were HMGA2 (61042; Active Motif), TET1 (sc-163446; Santa Cruz Biotechnologies), HOXA7 (09-086; Millipore), HOXA9 (09-178; Millipore), GAPDH (ab9484; Abcam), and Flag-M1 (F3040; Sigma).
(§2) Cells were subjected to 5-azacytidine (1 or 3.6 μM), decitabine (5-aza-dC; 220 or 440 nM), or mock treatment by addition into cell culture at indicated concentration. Cells were treated daily. RNA and protein were isolated respectively.

1833 cells = assay: In vitro cell invasion assay (Matrigel); conditions: 1833 cells treated with demethylation reagent (FIG. 21D, 27B)
Experimental: as §2
Cell proliferation assays were performed by using the CellTiter-Blues assay (Promega) as described (4). Invasion assays were performed as described (4) with modifications. Briefly, the inserts were coated with Matrigel basement membrane matrix (BD Biosciences). To assess the cell invasion ability, […] cells were seeded on top of the polymerized Matrigel in serum-free medium, and complete medium (10% FBS) was placed in the lower compartment. After 24 h, cells on the lower part of the insert were stained with BD Calcein AM Fluorescent Dye. The inserts with the invaded cells were incubated in dissociation buffer (Travigen) with gentle shaking. Fluorescence measurements were used to record data with 485 nm for excitation and 530 nm for emission.

TET1 mRNA in 1833 cells = assay: qRT-PCR for TET1 mRNA after demethylation treatment of 1833 cells; conditions: 1833 cells treated with 5-azacytidine, GAPDH normalization (FIG. 18D)
Experimental: as §1, with “Biosystems. Cells were subjected to 5-azacytidine (1 or 3.6 μM), decitabine (5-aza-dC; 220 or 440 nM), or mock treatment by addition into cell culture at indicated concentration. Cells were treated daily. RNA and protein were isolated respectively.” for “Biosystems.”

HOXA7 mRNA in 1833 cells = assay: qRT-PCR for HOXA7 mRNA after demethylation treatment of 1833 cells; conditions: 1833 cells treated with 5-azacytidine, GAPDH normalization (FIG. 20F)
Experimental: as §1, with “Biosystems. Cells were subjected to 5-azacytidine (1 or 3.6 μM), decitabine (5-aza-dC; 220 or 440 nM), or mock treatment by addition into cell culture at indicated concentration. Cells were treated daily. RNA and protein were isolated respectively.” for “Biosystems.”

`Nc1ncn([C@@H]2O[C@H](CO)[C@@H](O)[C@H]2O)c(=O)n1` [5-azacytidine] was tested, and the HOXA9 expression (HOXA9 in 1833 cells) was “dramatic increase”, the cell invasion (1833 cells) was “decreased cell invasion” and the TET1 expression (TET1 mRNA in 1833 cells) was “increase in TET1 expression”. For the same molecule, the HOXA7 expression (HOXA7 mRNA in 1833 cells) was “dramatic increase”.
